These compounds were tested against EGFR (UniProt P00533).
EGFR, sequence (P00533 whole entry, looked up): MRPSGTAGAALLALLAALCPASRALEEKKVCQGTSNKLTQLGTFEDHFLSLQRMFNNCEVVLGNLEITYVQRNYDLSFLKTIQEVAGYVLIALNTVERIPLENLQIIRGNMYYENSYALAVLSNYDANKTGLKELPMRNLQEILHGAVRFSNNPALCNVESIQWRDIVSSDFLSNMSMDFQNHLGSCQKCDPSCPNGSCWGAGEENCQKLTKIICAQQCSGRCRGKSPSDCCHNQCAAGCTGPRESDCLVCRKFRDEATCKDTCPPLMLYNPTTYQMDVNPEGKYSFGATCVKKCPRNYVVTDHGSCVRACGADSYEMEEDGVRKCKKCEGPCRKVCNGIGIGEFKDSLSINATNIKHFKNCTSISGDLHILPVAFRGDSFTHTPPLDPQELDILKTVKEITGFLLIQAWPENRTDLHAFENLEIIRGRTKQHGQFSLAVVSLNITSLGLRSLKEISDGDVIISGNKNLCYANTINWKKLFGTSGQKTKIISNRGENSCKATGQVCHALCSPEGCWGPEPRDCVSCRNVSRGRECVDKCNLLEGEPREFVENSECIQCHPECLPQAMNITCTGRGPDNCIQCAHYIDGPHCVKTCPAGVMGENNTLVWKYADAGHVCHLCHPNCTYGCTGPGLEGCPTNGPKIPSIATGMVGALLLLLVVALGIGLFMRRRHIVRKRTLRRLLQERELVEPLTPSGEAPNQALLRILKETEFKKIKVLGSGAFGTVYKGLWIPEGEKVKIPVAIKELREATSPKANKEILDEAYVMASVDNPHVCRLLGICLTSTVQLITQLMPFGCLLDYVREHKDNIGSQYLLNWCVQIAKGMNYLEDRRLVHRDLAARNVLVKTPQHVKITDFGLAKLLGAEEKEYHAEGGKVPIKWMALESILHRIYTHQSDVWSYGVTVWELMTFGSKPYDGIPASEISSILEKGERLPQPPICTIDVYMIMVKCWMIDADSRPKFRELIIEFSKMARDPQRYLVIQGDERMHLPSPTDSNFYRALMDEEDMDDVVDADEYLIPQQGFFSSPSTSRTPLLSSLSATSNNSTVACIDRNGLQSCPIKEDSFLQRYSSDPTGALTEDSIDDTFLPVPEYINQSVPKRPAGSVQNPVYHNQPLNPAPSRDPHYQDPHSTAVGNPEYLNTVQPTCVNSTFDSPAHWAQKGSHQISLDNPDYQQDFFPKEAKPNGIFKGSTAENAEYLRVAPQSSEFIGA

IC50 [µM]	Compound
0.003 to 25	CCc1c(C(=O)NCCCn2ccnc2)cn2ncnc(Nc3ccc4c(cnn4Cc4ccccc4)c3)c12
0.003 to 25	Cc1c(C(=O)NCCCN2CCCC2)cn2ncnc(C3C(=O)Nc4ccccc43)c12 (stereo unspecified)
0.003 to 25	Cc1ccc(Nc2ncnn3cc(C(=O)NCCCN4CCCC4)c(C)c23)cc1O
0.003 to 25	CC(=O)N1CCc2ccc(Nc3ncnn4cccc34)cc21
0.003 to 25	COC(=O)c1cn2ncnc(Nc3ccc(C)c([N+](=O)[O-])c3)c2c1C
0.003 to 25	COC(=O)c1cn2ncnc(C3C(=O)Nc4ccc(C(N)=O)cc43)c2c1C (stereo unspecified)
0.003 to 25	COC(=O)c1cn2ncnc(Nc3ccc(Br)cc3F)c2c1C
0.003 to 25	CCOC(=O)c1cn2ncnc(NCc3ccc(Br)cc3)c2c1CC
0.003 to 25	Cc1ccc(Nc2ncnn3cc(C(=O)NCCN(C)C)c(C)c23)cc1O
0.003 to 25	COC(=O)c1cn2ncnc(Nc3ccc(C#N)c(O)c3)c2c1C
0.003 to 25	COC(=O)c1cn2ncnc(Nc3cccc(C(=O)NN)c3)c2c1C
0.003 to 25	Clc1ccc(Nc2ncnn3cccc23)cc1
0.003 to 25	Cc1c(C(=O)NCCN2CCCC2)cn2ncnc(C3C(=O)Nc4ccccc43)c12 (stereo unspecified)
0.003 to 25	CCOC(=O)c1cn2ncnc(Nc3ccc(C)cc3)c2c1CC
0.003 to 25	CCOC(=O)c1cn2ncnc(NCCOC)c2c1CC
0.003 to 25	CCOC(=O)c1cn2ncnc(N3CCC4C=CC=CC4C3)c2c1CC (stereo unspecified)
0.003 to 25	COC(=O)c1cn2ncnc(Nc3cc(NS(C)(=O)=O)ccc3C)c2c1C
0.003 to 25	COC(=O)c1cn2ncnc(N3CC(=O)Nc4ccccc43)c2c1C
0.003 to 25	COC(=O)c1cn2ncnc(Nc3cc(CO)ccc3C)c2c1C
0.003 to 25	CCOC(=O)c1cn2ncnc(Nc3ccc4c(cnn4Cc4ccccc4)c3)c2c1Cc1ccccc1
0.003 to 25	Cc1ccc(Nc2ncnn3cc(CO)c(C)c23)cc1O
0.003 to 25	Cc1c(N)cn2ncnc(C3C(=O)Nc4ccccc43)c12 (stereo unspecified)
0.003 to 25	Cc1c(C(=O)NCCCN2CCOCC2)cn2ncnc(C3C(=O)Nc4ccccc43)c12 (stereo unspecified)
0.003 to 25	COC(=O)c1cn2ncnc(Nc3ccc4c(=O)[nH][nH]c(=O)c4c3)c2c1C
0.003 to 25	COC(=O)c1cn2ncnc(Nc3ccc(NS(=O)(=O)c4ccccc4)c(O)c3)c2c1C
0.003 to 25	CCOC(=O)c1cn2ncnc(C3C(=O)Nc4ccccc43)c2c1CC (stereo unspecified)
